Activity calls are given as the source filed them. How the calls were made is not given here.
Test system: rodent carcinogenicity bioassays, tumor incidence
Experiment: CCRIS carcinogenicity studies
Conditions: Dose: 0, Dose: 0
Summary of the method: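 Archive of carcinogenicity, mutagenicity, tumor promotion and tumor inhibition results drawn from journals, NCI reports and other sources, expert-reviewed; covers 1985-2011 and is no longer updated.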

Structure (SMILES): Cc1ccc(N)cc1N
- carcinogen call (Species: MOUSE, Strain/Sex: B6C3F1/FEMALE, Route: ORAL, 100, 200 PPM IN DIET FOR 101 WK, 100, 200 PPM IN DIET FOR 101 WK, Tumor Site: Type of Lesion: HEMATOPOIETIC SYSTEM (LEUKEMIA), LYMPHATIC SYSTEM: LYMPHOMA, LIVER: HEPATOCELLULAR CARCINOMA, Tumor Site: Type of Lesion: HEMATOPOIETIC SYSTEM (LEUKEMIA), LYMPHATIC SYSTEM: LYMPHOMA, LIVER: HEPATOCELLULAR CARCINOMA): active; positive
- carcinogen call (Species: MOUSE, Strain/Sex: B6C3F1/MALE, Route: ORAL, 100, 200 PPM IN DIET FOR 101 WK, 100, 200 PPM IN DIET FOR 101 WK): inactive; negative
- carcinogen call (Species: RAT, Strain/Sex: F344/FEMALE, Route: ORAL, 79, 171 PPM TWA, IN DIET FOR 84-103 WK, 79, 171 PPM TWA, IN DIET FOR 84-103 WK, Tumor Site: Type of Lesion: INTEGUMENTARY SYSTEM (SUBCUTANEOUS TISSUE): FIBROMA, FIBROSARCOMA, LIVER: HEPATOCELLULAR CARCINOMA OR NEOPLASTIC NODULE;, Tumor Site: Type of Lesion: INTEGUMENTARY SYSTEM (SUBCUTANEOUS TISSUE): FIBROMA, FIBROSARCOMA, LIVER: HEPATOCELLULAR CARCINOMA OR NEOPLASTIC NODULE): active; positive
- carcinogen call (Species: RAT, Strain/Sex: F344/MALE, Route: ORAL, 79, 176 PPM TWA, IN DIET FOR 79-103 WK, 79, 176 PPM TWA, IN DIET FOR 79-103 WK, Tumor Site: Type of Lesion: INTEGUMENTARY SYSTEM (SUBCUTANEOUS TISSUE): SQUAMOUS CELL CARCINOMA, FIBROMA, LIPOMA, LIVER: HEPATOCELLULAR CARCINOMA OR): active; positive

Structure (SMILES): Cc1ccc2cc3c(ccc4ccccc43)c3c2c1CC3O (stereo not given)
- carcinogen call (Species: RAT, Strain/Sex: SPRAGUE-DAWLEY/FEMALE, Route: SUBCUTANEOUS, 0.2 UMOL IN 0.1 ML SESAME OIL:DMSO (9:1) 3/WK FOR 20 DOSES (STUDY DURATION: 52 WK), Tumor Site: Type of Lesion: INJECTION SITE: SARCOMA): active; positive

Structure (SMILES): CCCCC(CC)COC(=O)c1ccccc1C(=O)OCC(CC)CCCC (stereo not given)
- carcinogen call (Species: MOUSE, Strain/Sex: B6C3F1/FEMALE, Route: ORAL, 3000, 6000 PPM IN DIET FOR 102-104 WK (STUDY DURATION: 102-104 WK), 3000, 6000 PPM IN DIET FOR 102-104 WK (STUDY DURATION: 102-104 WK), Tumor Site: Type of Lesion: LIVER: CARCINOMA, CARCINOMA OR ADENOMA): active; positive
- carcinogen call (Species: MOUSE, Strain/Sex: B6C3F1/FEMALE, Route: ORAL, 3000, 6000 PPM IN DIET FOR 103 WK (STUDY DURATION: 105 WK), 3000, 6000 PPM IN DIET FOR 103 WK (STUDY DURATION: 105 WK), Tumor Site: Type of Lesion: LIVER: HEPATOCELLULAR CARCINOMA): active; positive
- carcinogen call (Species: MOUSE, Strain/Sex: B6C3F1/MALE, Route: ORAL, 3000, 6000 PPM IN DIET FOR 102-104 WK (STUDY DURATION: 102-104 WK), 3000, 6000 PPM IN DIET FOR 102-104 WK (STUDY DURATION: 102-104 WK), Tumor Site: Type of Lesion: LIVER: CARCINOMA, CARCINOMA OR ADENOMA): active; positive
- carcinogen call (Species: MOUSE, Strain/Sex: B6C3F1/MALE, Route: ORAL, 3000, 6000 PPM IN DIET FOR 103 WK (STUDY DURATION: 104-105 WK), 3000, 6000 PPM IN DIET FOR 103 WK (STUDY DURATION: 104-105 WK), Tumor Site: Type of Lesion: LIVER: HEPATOCELLULAR CARCINOMA): active; positive
- carcinogen call (Species: RAT, Strain/Sex: F344/FEMALE, Route: ORAL, 6000, 12000 PPM IN DIET FOR 102-104 WK (STUDY DURATION: 102-104 WK), 6000, 12000 PPM IN DIET FOR 102-104 WK (STUDY DURATION: 102-104 WK), Tumor Site: Type of Lesion: LIVER: CARCINOMA, CARCINOMA OR ADENOMA): active; positive
- carcinogen call (Species: RAT, Strain/Sex: F344/FEMALE, Route: ORAL, 6000, 12000 PPM IN DIET FOR 103 WK (STUDY DURATION: 105 WK), 6000, 12000 PPM IN DIET FOR 103 WK (STUDY DURATION: 105 WK), Tumor Site: Type of Lesion: LIVER: HEPATOCELLULAR CARCINOMA, NEOPLASTIC NODULE): active; positive
- carcinogen call (Species: RAT, Strain/Sex: F344/MALE, Route: ORAL, 2% IN DIET FOR 78 WK (STUDY DURATION: 78 WK), Tumor Site: Type of Lesion: LIVER: NEOPLASM): active; positive
- carcinogen call (Species: RAT, Strain/Sex: F344/MALE, Route: ORAL, 2% IN DIET FOR 108 WK (STUDY DURATION: 108 WK), Tumor Site: Type of Lesion: LIVER: NEOPLASTIC NODULE OR HEPATOCELLULAR CARCINOMA): active; positive
- carcinogen call (Species: RAT, Strain/Sex: F344/MALE, Route: ORAL, 6000, 12000 PPM IN DIET FOR 102-104 WK (STUDY DURATION: 102-104 WK), 6000, 12000 PPM IN DIET FOR 102-104 WK (STUDY DURATION: 102-104 WK), Tumor Site: Type of Lesion: LIVER: CARCINOMA, CARCINOMA OR ADENOMA): active; positive
- carcinogen call (Species: RAT, Strain/Sex: F344/MALE, Route: ORAL, 6000, 12000 PPM IN DIET FOR 103 WK (STUDY DURATION: 104-105 WK), 6000, 12000 PPM IN DIET FOR 103 WK (STUDY DURATION: 104-105 WK), Tumor Site: Type of Lesion: LIVER: HEPATOCELLULAR CARCINOMA OR NEOPLASTIC NODULE): active; positive
- carcinogen call (Species: RAT, Strain/Sex: SPRAGUE-DAWLEY/MALE (31-167/GROUP), Route: ORAL, 30, 95, 300 MG/KG/D IN DIET UP TO 159 WK (STUDY DURATION: LIFE TIME), 30, 95, 300 MG/KG/D IN DIET UP TO 159 WK (STUDY DURATION: LIFE TIME), Tumor Site: Type of Lesion: TESTIS: LEYDIG CELL TUMORS): active; positive
- carcinogen call (Species: RAT, Strain/Sex: SPRAGUE-DAWLEY/MALE (31-167/GROUP), Route: ORAL, 30, 95, 300 MG/KG/D IN DIET UP TO 159 WK (STUDY DURATION: LIFETIME), 30, 95, 300 MG/KG/D IN DIET UP TO 159 WK (STUDY DURATION: LIFETIME), Tumor Site: Type of Lesion: LIVER: CHOLANGIOCELLULAR TUMORS, TESTIS: LEYDIG CELL TUMORS (SIGNIFICANT DOSE RELATED TREND, INCIDENCE COMPARED TO CONTR, Tumor Site: Type of Lesion: LIVER: CHOLANGIOCELLULAR TUMORS, TESTIS: LEYDIG CELL TUMORS (SIGNIFICANT DOSE RELATED TREND, INCIDENCE COMPARED TO CONTR): active; positive

Structure (SMILES): CCC1=C(C)CN(C(=O)NCCc2ccc(S(=O)(=O)NC(=O)NC3CCC(C)CC3)cc2)C1=O (stereo not given)
- carcinogen call (Species: DOG, Strain/Sex: BEAGLE/FEMALE, Route: ORAL, 0.8, 16, 320 MG/KG BW IN GELATIN CAPSULE 1/D 7 D/WK FOR 12 MO (STUDY DURATION: 15 MO), 0.8, 16, 320 MG/KG BW IN GELATIN CAPSULE 1/D 7 D/WK FOR 12 MO (STUDY DURATION: 15 MO)): inactive; negative
- carcinogen call (Species: DOG, Strain/Sex: BEAGLE/MALE, Route: ORAL, 0.8, 16, 320 MG/KG BW IN GELATIN CAPSULE 1/D 7 D/WK FOR 12 MO (STUDY DURATION: 13 MO), 0.8, 16, 320 MG/KG BW IN GELATIN CAPSULE 1/D 7 D/WK FOR 12 MO (STUDY DURATION: 13 MO)): inactive; negative
- carcinogen call (Species: RAT, Strain/Sex: WISTAR/FEMALE, Route: ORAL, 20, 1000, 50000 PPM IN DIET FOR 12 MO (STUDY DURATION: 13 MO), 20, 1000, 50000 PPM IN DIET FOR 12 MO (STUDY DURATION: 13 MO)): inactive; negative
- carcinogen call (Species: RAT, Strain/Sex: WISTAR/MALE, Route: ORAL, 20, 1000, 50000 PPM IN DIET FOR 12 MO (STUDY DURATION: 13 MO), 20, 1000, 50000 PPM IN DIET FOR 12 MO (STUDY DURATION: 13 MO)): inactive; negative

Structure (SMILES): CCC(=O)C(CC(C)N(C)C)(c1ccccc1)c1ccccc1 (stereo not given)
- carcinogen call (Species: MOUSE, Strain/Sex: B6C3F1/FEMALE, Route: ORAL, 15, 60 MG/KG IN DIET FOR DURATION OF STUDY (STUDY DURATION: 108 WK), 15, 60 MG/KG IN DIET FOR DURATION OF STUDY (STUDY DURATION: 108 WK)): inactive; negative
- carcinogen call (Species: MOUSE, Strain/Sex: B6C3F1/MALE, Route: ORAL, 15, 60 MG/KG IN DIET FOR DURATION OF STUDY (STUDY DURATION: 108 WK), 15, 60 MG/KG IN DIET FOR DURATION OF STUDY (STUDY DURATION: 108 WK)): inactive; negative
- carcinogen call (Species: RAT, Strain/Sex: F344/FEMALE, Route: ORAL, 28, 88 MG/KG IN DIET FOR DURATION OF STUDY (STUDY DURATION: 108 WK), 28, 88 MG/KG IN DIET FOR DURATION OF STUDY (STUDY DURATION: 108 WK)): inactive; negative
- carcinogen call (Species: RAT, Strain/Sex: F344/MALE, Route: ORAL, 16, 46 MG/KG IN DIET FOR DURATION OF STUDY (STUDY DURATION: 108 WK), 16, 46 MG/KG IN DIET FOR DURATION OF STUDY (STUDY DURATION: 108 WK)): inactive; negative
